Experimental findings from patent US7186703B2, “Derivatives of branched-chain lipophilic molecules and uses thereof” (D-Pharm Ltd., priority 2000, dated 2007) are described below.

Series [1] concerns blood tumor barrier / blood brain barrier. Briefly: Unilateral administration in rats with bilateral C6 gliomas, Evans blue staining of brain sections. The series is classed as in vivo, SD rats. To be noted: 10 μM 3,12-DEG-HPO4Na; 40 μM 3,12-Na; 25% mannitol; unilateral infusion. Here is the method:
FIGS. 2A–C depict Evans blue accumulation in brain sections of rats bearing bilateral gliomas following unilateral administration of a compound as follows: 10 μM 3,12-DEG-HPO4Na (FIG. 2A), 40 μM 3,12-Na (FIG. 2B) or mannitol 25% (FIG. 2C).
Evans Blue and Fluoroscein penetration into gliomas tumors was examined following unilateral infusion into the external carotis artery of either 10 μM 3,12-DEG-HPO4Na (FIG. 2A), 40 μM 3,12-Na BFA (FIG. 2B) or 25% mannitol (FIG. 2C). The relevant compound was infused into rat brains at 9 to 12 days following inoculation of C6 glioma cells as described in Example 23.

Series [2] has as its system caspase-3 activity in Neuro2a neuroblastoma cells. Briefly: Caspase-3 activity in Neuro2a cell lysates (Ac-DEVD-AMC substrate). The series is classed as cell-based, mouse. Here is the method: In order to further explore the possible mechanism underlying the cytotoxic effect exerted by the various DP-BFAs, two established markers for apoptosis, caspase-3 activity and DNA fragmentation (Lincz (1998) Immunol. Cell Biol. 76: 1–19), were studied.
Neuro2a neuroblastoma cells (ATCC, CCL-131) were seeded in MEM containing 2 mM L-glutamine, 100 units/ml penicillin, 100 ug/ml streptomycin and 10% FCS at 37° C. 24 hours later, when cells were in logarithmic growth phase, 3,12-DEG-PC was added to a final concentration of 25 μM, 50 μM or 100 μM. Cells grown in the presence of vehicle only served as control group.
Assays for caspase-3 activity and DNA-fragmentation were performed on cell lysates obtained following, respectively, 6 and 24 hours incubation with the drug. Caspase-3 activity was assayed using the fluorogenic substrate Ac-DEVD-AMC (Pharmingen, Becton Dickinson, cat. no. 66081U) and following the manufacture's instructions. DNA-fragmentation was quantified by using the Cell Death Detection Elisa plus kit (Roche, cat. no. 1774 425) and following the manufacture's instructions.
The measured caspase activity is expressed as percentage of the activity in the control plates normalized to protein content. DNA-fragmentation is expressed as OD values at λ=405 nm and is an average of readings from duplicate cell culture lysates.

The test system of a further series is C6 glioma cell line. Briefly: MTT cytotoxicity, C6 glioma. The series is classed as cell-based, rat. The conditions noted are these: three days, read-out: EC50 (50% reduction in cell viability). Here is the method:
The cytotoxic activity of various phospho-derivatives of branched-chain fatty acids (DP-BFAs) was assayed in vitro in cell cultures that include normal and malignant cell types. The following cell systems were used: • Primary fibroblasts (human) • Normal bone marrow (BM) cells (mouse) • Primary bronchial epithelial cells (human, from Clonetics, cat. no. CC-2541) • Caco-2—colon cancer cell line (human, ATTC, HTB-37) • C6 glioma cell line (rat, ATCC, CRL-2199) • Neuro2a—neuroblastoma cell line (mouse, ATCC, CCL-131) • SKBR-3—breast cancer cell line (human, ATTC, HTB-30) • HL60—myeloid leukemia cell line (human, ATCC, CCL-240) • U937—myeloid leukemia cell line (human)
Cells were seeded in a microtiter plate in MEM containing 2 mM L-glutamine, 100 units/ml penicillin, 100 ug/ml streptomycin and 10% FCS at 37° C. The cultured cells were incubated, during their linear growth phase in the absence (control group) or presence of various DP-BFAs as indicated. The final concentrations of the tested DP-BFAs ranged from 1.5 to 200 microMolars. At the end of the incubation period, which was five days for the bone marrow cells and three days for all the other cell lines, the cytotoxic effect of the added P-BFA on the cells was estimated by using the colorimetric MTT assay. The MTT assay (Mosmann (1983) J. Immunol Methods 65: 55–63) measures mitochondrial reductase activity and serves for quantitative assessment of cellular viability. Drug concentration that causes 50% reduction in cell viability in comparison to the control group, is defined as EC50. The EC50 values of the tested DP-BFA compounds were calculated from dose response curves established for each of the different assayed cell lines.
Each EC50 value is an average of EC50 values derived from 1–5 independent experiments.

Series [3] concerns Chinese hamster ovary (CHO) AA8 cell line. Briefly: LDH release toxicity assay in cultured CHO AA8 cells. The series is classed as cell-based. The conditions noted are these: 1 hour incubation, read-out: LC50 (the source's name). Here is the method: Various DP-BFA molecules were screened in cultured Chinese hamster ovary (CHO) AA8 cell line in order to establish their toxicity. LC50 values, i.e. the concentrations causing death in 50% of cell population, were calculated from dose response curves. LC50 values of phospho-BFAs were compared to those of the corresponding branched fatty acids (=carbo-BFAs).
Lactate dehydrogenase (LDH) release was used as an assay for the integrity of the cells membrane and, thus, for estimation of toxicity. Cells (2×10^5/ml) were seeded (150 μl/well) in 96 well plates, in RPMI-1640 medium containing 10% FCS. After two days, tested DP-BFA compounds or the control compound myristic acid were added to the plates in declining concentrations ranging from 500 to 1 μg/ml. Cells were harvested after one hour. […] Other controls included, two blank wells and five wells containing cells with no additional drugs. Following centrifugation (1500 rpm, 5 min), 75 μl of the supernatant was transferred to a new plate with 45 μl of an LDH assay mix (Tox-7 kit, Sigma). After 10–20 minutes at room temperature, absorbance was measured using an Elisa Reader 490 nm.
Each experiment was performed in triplicate.
A general note: LDH leaks from cells whose membrane has failed.

Series [4] deals with blood brain barrier (BBB). Briefly: Duration of the effect on BBB opening in rat brain. It counts as in vivo, Sprague Dawley rats. To be noted: EC50 concentrations of the tested compounds. From the text:
The effects of DP-BFA on Evans Blue and Fluoroscein extravasation in rat brain were examined at various time points following DP-BFA administration. Various DP-BFA compounds were infused, over a period of 30 seconds, into the external carotid artery of Sprague Dawley rats, following the procedure described above in Example 17. The tested compounds were used at their EC50 concentrations. […] Two compounds, 3,12-PC and 3,12-MEG-PC, both comprising a phosphocholine moiety, have shown D1/2 which was 4 times longer than the other tested 3,12-BFA derivatives, i.e. D1/2 of around 120 min.

Read-outs that look alike come from different tables or passages of the source.

For the compound “2-(4′-Hexadecanoyloxy)ethoxyethyl phosphate [3,12-DEG-PO4]”, the “Evans Blue staining of tumor and non-tumor brain (FIG. 2, in words)” value in series [1] was “only in the tumor tissue in the ipsilateral hemisphere”.

For the compound `CCCCCCCCCCCCC(CCC)C(=O)OCCOCCOP(=O)([O-])OCC[N+](C)(C)C` (centres unmarked) [3,12-DEG-PC, 2-(2′-Propyltetradecanoyloxy)ethoxyethylphosphocholine], the activity at 25 µM in series [2] (Mus musculus, N2a, 25 μM, 6 hours, Neuro2a, normalized to protein content, read-out: Caspase activity (% of control)) was determined as 210%. Further, in series [2] (Mus musculus, N2a, 50 μM, 6 hours, Neuro2a, normalized to protein content, read-out: Caspase activity (% of control)), the activity at 50 µM is 540%. The “increase in caspase-3 activity” value in series [2] (Neuro2a cells) was “about 5 fold”. Further, the EC50 in the series with C6 glioma cell line (Rattus norvegicus, 72 h) came out at 95 µM.

As to `CCCCCCCCCCCCC(CCC)C(=O)OCCOCCOP(=O)([O-])[O-].[Na+].[Na+]` (centres unmarked) [3,12-DEG-PO4Na2, 2-[2′-(2″-Propyltetradecanoyloxy)-ethoxy]ethyl Disodium Phosphate], the CC50 in series [3] was determined as 320 µM. The EC50 in the series on C6 glioma cell line stood at 38 µM.

Turning to `CCCCCCCCCCCCC(CCC)C(=O)OCCOP(=O)([O-])OCC[N+](C)(C)C` (centres unmarked) [3,12-MEG-PC, 2-(2′-Propyltetradecanoyloxy)ethylphosphocholine], the “D1/2 (duration of at least 50% opening of the BBB)” value in series [4] is given as “around 120 min”.

In the case of `CCCCCCCCCCCCC(CCC)C(=O)[O-].[Na+]` (centres unmarked) [3,12-Na, reference compound], the “Evans Blue staining of tumor and non-tumor brain (FIG. 2, in words)” value in series [1] is “equally permeabilized tumor and non-tumor brain tissues”. Moreover, in series [3], the CC50 was found to be 165 µM.

`CCCCCCCCCCCCC(CCC)OP(=O)([O-])OCC[N+](C)(C)C` (centres unmarked) [3,12-PC, 4-Hexadecanyl phosphocholine]: the “D1/2 (duration of at least 50% opening of the BBB)” value in series [4] was “around 120 min”.

One may read the EC50 as the concentration that produces a half-maximal response.
